Results: patent US20260055138A1, “CARRIER PEPTIDE FRAGMENT AND USE THEREOF” (TOAGOSEI CO., LTD., priority 2022, published 2026)
Primed or numbered codes have the meaning given here. [ ]: non-standard residue; d: D form. FAM = 5(6)-carboxyfluorescein; FAM″ = C-terminal FAM

Test system: HeLa cells
Test: Evaluation of cell membrane permeability by flow cytometry
Format: cell-based, human
Details: for MFI (median fluorescence intensity): construct (additive) 10 μM, 0.5% DMSO in culture solution, 20 hours incubation at 37° C., FAM fluorescence, detector FL2
Description: As the eukaryotic cells, HeLa cells (established cell strain derived from a human cervical cancer cell) were used and the cell membrane permeability of the samples 1 to 15 was analyzed. In Examples 1 to 15, the prepared sample solutions 1 to 15 were used, respectively, and in Example 16, the FAM solution was used.
The HeLa cell was cultured in 10% fetal bovine serum (FBS)-containing Dulbecco's modified Eagle's medium (DMEM (Cat No. 044-29765, manufactured by FUJIFILM Wako Pure Chemical Corporation)), which is a culture medium.
The HeLa cell that adhered to a culture plate was cleaned with PBS and then, a 0.25%-trypsin/EDTA solution was added thereto, and incubation was performed for three minutes at 37° C. After the incubation, the aforementioned 10% FBS-containing DMEM was added to deactivate trypsin and then, five-minute centrifugal separation was performed at 150×g to precipitate the cells. After the supernatant generated by the centrifugal separation was removed, the 10% FBS-containing DMEM was added to the precipitate (cell pellet) to prepare a cell suspension of about 2×10^5 cells/mL. The cell suspension was added by 1 mL to a well of a commercially available six-hole (well) plate (manufactured by AGC TECHNO GLASS Co., Ltd.) so as to seed the cell (about 2×10^5 cells/well). In addition, the 2 mM sample solution 1 was diluted with the 10% FBS-containing DMEM to prepare the sample solution 1 in which the concentration of the sample 1 was 20 μM. Then, 1 mL of the 20 μM sample solution 1 was added to the well (that is, so that the concentration of the sample 1 became 10 μM and the DMSO concentration became 0.5% in the culture solution in the well). After that, the cell was incubated for 20 hours at 37° C. under a 5% CO2 condition.
After the 20-hour incubation, the culture supernatant was removed from the well and the cells in the well were cleaned twice with 1 mL of PBS. Next, 200 μL of the 0.25% trypsin/EDTA solution was added to the well and the incubation was performed for three minutes at 37° C. After the incubation, 400 μL of the 10% FBS-containing DMEM was added to the well to deactivate the trypsin. Subsequently, the cell suspension in the well was transferred to a tube and the cells were collected. After that, 600 μL of PBS was added further to the well to clean the well. Then, PBS in the well was transferred to the tube, so that the cells remaining in the well were collected in the tube. This tube was subjected to five-minute centrifugal separation at 4° C. under a condition of 210×g. After the centrifugal separation, the supernatant was removed and the precipitate (cell pellet) was suspended (cleaned) with 1 mL of PBS, which was followed by the centrifugal separation under the same condition as that described above. After this operation was repeated twice, the supernatant was removed and thus, the cells (cell pellet) cultured in a culture medium containing the sample 1 were obtained.
Regarding the obtained cells (cell pellet), the cell membrane permeability of the sample 1 was analyzed using a flow cytometer. As the flow cytometer, On-Chip Flowcytometer (manufactured by On-Chip Biotechnologies Co., LTD.) was used.
For such an analysis, the obtained cell pellet was suspended with 100 μL of on-chip T buffer to prepare a cell suspension for analysis.
Using the aforementioned flow cytometer, gating based on forward scatter (FSC) and side scatter (SSC) was performed to set a gate about a cell group to be analyzed, and the fluorescence intensity was measured about the cell group in this gate. Note that the analysis was performed so that the cell group contained at least 10000 cells. The fluorescence intensity was measured using a fluorescence detector FL2 of the flow cytometer (optimum detection wavelength around 543 nm) capable of detecting the fluorescence wavelength of FAM. […]

Ac-KKrTLRKSNRKKR-FAM (Ac-KK[dR]TLRKSNRKKR-{FAM″}) [Example 3]
MFI (median fluorescence intensity): 13.9

Ac-KKRTLRKSnRKKR-FAM (Ac-KKRTLRKS[dN]RKKR-{FAM″}) [Example 9]
MFI (median fluorescence intensity): 15.6

Ac-KKRTlRKSNRKKR-FAM (Ac-KKRT[dL]RKSNRKKR-{FAM″}) [Example 5]
MFI (median fluorescence intensity): 16.5

Ac-KKRTLRKsNRKKR-FAM (Ac-KKRTLRK[dS]NRKKR-{FAM″}) [Example 8]
MFI (median fluorescence intensity): 14.3

Ac-KKRTLRKSNRkKR-FAM (Ac-KKRTLRKSNR[dK]KR-{FAM″}) [Example 11]
MFI (median fluorescence intensity): 17.4

Ac-KKRTLrKSNRKKR-FAM [Example 6]
MFI (median fluorescence intensity): 17.5

Ac-KKRtLRKSNRKKR-FAM (Ac-KKR[dT]LRKSNRKKR-{FAM″}) [Example 4]
MFI (median fluorescence intensity): 15.9

5(6)-carboxyfluorescein [Example 16, reference compound]
MFI (median fluorescence intensity): 10.6

Ac-KKRTLRKSNRKKr-FAM (Ac-KKRTLRKSNRKK[dR]-{FAM″}) [Example 13]
MFI (median fluorescence intensity): 15.2

Ac-KkRTLRKSNRKKR-FAM (Ac-K[dK]RTLRKSNRKKR-{FAM″}) [Example 2]
MFI (median fluorescence intensity): 14.1

Ac-KKRTLRKSNRKKR-FAM [Example 15] (Ac-KKRTLRKSNRKKR-{FAM″}) [reference compound]
MFI (median fluorescence intensity): 13.0

Ac-KKRTLRKSNrKKR-FAM (Ac-KKRTLRKSN[dR]KKR-{FAM″}) [Example 10]
MFI (median fluorescence intensity): 15.5

Ac-KKRTLRKSNRKKR-FAM [Example 7] (Ac-KKRTLR[dK]SNRKKR-{FAM})
MFI (median fluorescence intensity): 16.9

Ac-KKRTLRKSNRKkR-FAM [Example 12]
value of MFI, comparison in words (10 μM, 20 hours, compared with Example 15): high in particular | MFI (median fluorescence intensity): 33.8

Ac-kkrtlrksnrkkr-FAM (Ac-[dK][dK][dR][dT][dL][dR][dK][dS][dN][dR][dK][dK][dR]-{FAM″}) [Example 14]
MFI (median fluorescence intensity): 16.1

Ac-kKRTLRKSNRKKR-FAM (Ac-[dK]KRTLRKSNRKKR-{FAM″}) [Example 1]
MFI (median fluorescence intensity): 13.9
